Earlier results on six compounds are cited in patent publication US9193713B2, “Compounds as cannabinoid receptor ligands” (priority 2007, dated 2015).

Series [1] has as its system animal models. Particulars: acute thermal, persistent, inflammatory and neuropathic pain models.
The subject of series [2] is rodent. Particulars: neuropathic, incisional, chronic and acute inflammatory pain.
The subject of series [3] is rat. Particulars: rat formalin model of persistent pain.
For series [4], the system named is microglial. Particulars: in vitro; effects blocked by SR144528.
The subject of series [5] is apolipoprotein E knockout mice. Particulars: low doses; effects inhibited by SR144528.
In series [6] the test system is mice. Particulars: model for post-menopausal osteoporosis.
For series [7], the system named is osteoclast.

As to `CN1CCCCC1Cn1cc(C(=O)c2cc([N+](=O)[O-])ccc2I)c2ccccc21` (stereo not shown) [AM-1241], the analgesic efficacy result in series [1] is reported as “robust analgesic efficacy”. Regarding `COc1ccc2c(c1)c(CCN1CCOCC1)c(C)n2C(=O)c1cccc(Cl)c1Cl` [GW405833], the “efficacy in pain models” value in series [2] was “efficacious”.

For the compound `CCCCCCC(C)(C)c1cc(OC)c([C@@H]2C=C(CO)[C@@H]3C[C@H]2C3(C)C)c(OC)c1` [HU-308], the antinociceptive response result in series [3] was “elicits an antinociceptive response”. For `CCCC(C)(C)c1ccc2c(c1)OC(C)(C)[C@@H]1CC=C(C)C[C@@H]21` [JWH-133], the “effect on β-amyloid-induced microglial activation and neurotoxicity” value in series [4] was “abrogated β-amyloid-induced microglial activation and neurotoxicity”.

On to (−)-Δ^9-Tetrahydrocannabinol [THC], for which, in series [5], the “effect on progression of atherosclerotic lesions” value is listed as “slowed the progression of atherosclerotic lesions”.

As for SR144528, the “effect on ovariectomy-induced bone loss” value in series [6] is recorded as “reverse ovariectomy-induced bone loss”. Further, the “effect on osteoclast activity” value in series [7] is given as “inhibit osteoclast activity”.
